Experimental data reported in patent US12036194B1, “Methods of administering solriamfetol to lactating women” (Axsome Malta Ltd., priority 2022, dated 2024).
Where a name gives a salt, the structure may show the parent alone. Read-outs that look alike come from different tables or passages of the source.

Experiments:
[1] = Phase 4 open-label single-dose study: pharmacokinetics of solriamfetol in plasma of healthy postpartum women; assay type: in vivo, human; conditions: for AUC(0-inf) / AUC(0-t) / Cmax / Vd/F / half-life / Tmax: female, human, po, 150 mg
Protocol: A Phase 4, open-label, single-dose study to evaluate the pharmacokinetics (PK) of solriamfetol in the breast milk and plasma of healthy postpartum women following oral administration of a 150 mg solriamfetol tablet.
The study was conducted in 6 healthy adult lactating women who were between 15 and 37 weeks postpartum and were administered a single oral dose of SUNOSI 150 mg. SUNOSI was excreted in breast milk with a milk to plasma AUC ratio of approximately 2:1. […] The average amount that would be passed to the infant was estimated to be 0.59 mg over 24 hours, which is about 4.0% of the maternal dose on a weight-adjusted basis. The data from the lactation study indicate that SUNOSI is transferred to breastmilk in nursing mothers, with the relative infant dose (RID) is approximately 4% of the maternal weight-adjusted dosage. Data to assess the effects of SUNOSI on a breastfed infant or on milk production is not provided. The developmental and health benefits of breastfeeding should be considered along with the mother's clinical need for SUNOSI and any potential adverse effects on the breastfed child from SUNOSI or from the underlying maternal condition. Breastfed infants should be monitored for adverse reactions, such as agitation, insomnia, anorexia, and reduced weight gain.
On Day −1, eligible subjects underwent the baseline procedures. On Day 1, 2 hours after a light breakfast, subjects were to receive a single dose of solriamfetol 150 mg with 240 mL of water. Subjects had to fast for approximately 4 hours after the first dose; water was allowed except for 1 hour before and 1 hour after dosing with the study drug.
Pharmacokinetic analysis of breast milk obtained from both breasts (by pumping) was evaluated prior to dose administration and at intervals up to 72 hours postdose. Blood samples were also collected for plasma solriamfetol quantitation and PK analysis predose and at timepoints up to 72 hours postdose. Solriamfetol breast milk and plasma concentrations were measured using validated bioanalytical methods. Safety was assessed throughout the study by 12-lead ECG, vital sign measurements, the Columbia-Suicide Severity Rating Scale (C-SSRS), and the incidence of adverse events (AE).
Blood samples for plasma PK evaluation were collected at the following time points: Predose, 1, 1.5, 3, 6, 8.5, 10, 13, 15, 21, 24, 28, 36, 44, and 72 hours following dosing on Day 1. General study methodology is outlined in Table 6.
Serial blood samples (4 mL) were collected and dispensed into labeled K2EDTA tubes. The actual time of blood collection for all samples was recorded on the eCRF. Solriamfetol concentration in breast milk and plasma were determined using a validated bioanalytical method (LC-MS/MS) at Origin Bioanalytical Laboratory. The analytical range (lower limit of quantitation [LLOQ] to upper limit of quantitation) for plasma solriamfetol was 8.42 to 4210.00 ng/mL, and breast milk solriamfetol was 10.0 to 8000 ng/mL.
Pharmacokinetic parameters were derived with Phoenix® WinNonlin® Version 8.3 (Certara, Inc., Princeton, New Jersey, USA) and/or SAS© Version 9.4 (SAS Institute, Inc., Cary, North Carolina, USA).
Pharmacokinetic concentrations and parameters were summarized using descriptive statistics, including n, arithmetic mean, SD, coefficient of variation (CV %), median, min, max, Geometric mean (Geo-mean) and the geometric coefficient of variation (Geo-CV %). For the PK parameter tmax, only n, median, minimum, and maximum was presented.

[2] = animals tested; cited from earlier work
[3] = single oral 150 mg solriamfetol tablet, N = 6
[4] = single oral 150 mg solriamfetol tablet, N = 6, hydrochloride
[5] = single oral 150 mg solriamfetol tablet, N = 6, listed as solriamfetol, hydrochloride

NC(=O)OC[C@H](N)Cc1ccccc1 [Solriamfetol, (R)-2-amino-3-phenylpropyl carbamate (APC) hydrochloride]
AUC(0-inf) ([1]; single oral 150 mg solriamfetol tablet, N = 6, read-out: AUC0-inf, Geometric Mean): 6340 ng·h/mL | AUC(0-t) ([1]; single oral 150 mg solriamfetol tablet, N = 6, read-out: AUC0-t, Arithmetic Mean (CV %)): 6440 ng·h/mL | AUC(0-t) ([1]; single oral 150 mg solriamfetol tablet, N = 6, read-out: AUC0-t, Geometric Mean): 6240 ng·h/mL | Cmax ([1]; single oral 150 mg solriamfetol tablet, N = 6, read-out: Cmax, Arithmetic Mean (CV %)): 905 ng/mL | Cmax ([1]; single oral 150 mg solriamfetol tablet, N = 6, read-out: Cmax, Geometric Mean): 892 ng/mL | Vd/F ([1]; single oral 150 mg solriamfetol tablet, N = 6, read-out: Vz/F, Arithmetic Mean (CV %)): 169 L | Vd/F ([1]; single oral 150 mg solriamfetol tablet, N = 6, read-out: Vz/F, Geometric Mean): 162 L | half-life ([1]; single oral 150 mg solriamfetol tablet, N = 6, read-out: t1/2, Arithmetic Mean (CV %) (converted)): 4.8 h | half-life ([1]; single oral 150 mg solriamfetol tablet, N = 6, read-out: t1/2, Geometric Mean (converted)): 4.75 h | Tmax ([1]; single oral 150 mg solriamfetol tablet, N = 6, read-out: tmax, Median (min, max)): 1.25 h | AUC(0-inf) ([1]; single oral 150 mg solriamfetol tablet, healthy postpartum women N = 6, read-out: AUC0-inf, Arithmetic Mean (CV %)): 6540 ng·h/mL | half-life ([1]; single oral 150 mg, read-out: t1/2 (approximate) (converted)): ~5 h | Tmax ([1]; single oral 150 mg, read-out: tmax range): 1 to 3 h | CL/F, Geometric Mean [1, 3]: 23.66 L/h | Lambda_z, Arithmetic Mean (CV %) [1, 3]: 0.1478 (19.1) 1/h | Lambda_z, Geometric Mean [1, 3]: 0.1459 h⁻¹ | CL/F, Arithmetic Mean (CV %) [1, 4]: 24.40 (26.8) L/h | t1/2, Arithmetic Mean (CV %) [1, 4]: 4.804 (15.2) h | CL/F, Arithmetic Mean (CV %) [1, 5]: 24.40 L/h | tmax, Median (min, max) [1, 5]: 1 h | absorption and oral bioavailability [2]: rapid absorption and high oral bioavailability | exposure (maximum serum concentration and AUC) versus dose [2]: dose-proportional exposure
